# From patent publication US20070128217A1 (priority 2003, published 2007)
# How the values were obtained:
# [1] = tested on: recombinant human anti-SARS-CoV antibody 03-018; format: binding; set-up: Binding of antibody 03-018 to linear peptides of the N protein of SARS-CoV Urbani / Binding of antibody 03-018 to looped/cyclic peptides of the N protein of SARS-CoV Urbani: unit not given here
# [2] = tested on: rabbit serum obtained by immunizing a rabbit with the SARS-CoV strain Frankfurt 1; format: binding; set-up: Binding of a rabbit serum to linear peptides / Binding of a rabbit serum to looped peptides / Rabbit serum linear peptides / Rabbit serum looped peptides / Binding of a rabbit serum to linear peptides of protein N of SARS-CoV Urbani (Rabbit serum linear peptides) / Binding of a rabbit serum to looped/cyclic peptides of protein N of SARS-CoV Urbani (Rabbit serum looped peptides): unit not given here
# [3] = tested on: antibodies in sera from SARS patients (sera 1a, 1b, 2, 6, 37, 62, London, SARS-yellow, SARS-green); format: binding, human; set-up: Binding of serum 6 to linear peptides of protein X1 of SARS-CoV Urbani / Binding of serum 37 to linear peptides of protein X1 of SARS-CoV Urbani / Binding of serum 6 to looped/cyclic peptide (PEPSCAN-ELISA) / Binding of serum 37 to looped/cyclic peptide (PEPSCAN-ELISA) / Binding of serum 37 to looped/cyclic peptides of protein X1 of SARS-CoV Urbani / Binding of serum 6 to linear peptides of protein X2 / Binding of serum 37 to linear peptides of protein X2 / Binding of serum 37 to looped/cyclic peptides of protein X2 of SARS-CoV Urbani / Binding of serum 6 to linear peptides of protein M of SARS-CoV Urbani / Binding of serum 37 to linear peptides of protein M of SARS-CoV Urbani / Binding of serum 6 to looped/cyclic peptides of protein M of SARS-CoV Urbani / Binding of serum 37 to looped/cyclic peptides of protein M of SARS-CoV Urbani / Binding of serum 6 to linear peptides of protein X3 of SARS-CoV Urbani / Binding of serum 37 to linear peptides of protein X3 of SARS-CoV Urbani / Binding of serum 37 to looped/cyclic peptides of protein X3 of SARS-CoV Urbani / Binding of serum 6 to linear peptides of protein X4 of SARS-CoV Urbani / Binding of serum 37 to linear peptides of protein X4 of SARS-CoV Urbani / Binding of serum 37 to looped/cyclic peptides of protein X4 of SARS-CoV Urbani / Binding of serum 6 to linear peptides of protein X5 of SARS-CoV Urbani / Binding of serum 37 to linear peptides of protein X5 of SARS-CoV Urbani / Binding of serum 37 to looped/cyclic peptides of protein X5 of SARS-CoV Urbani / Binding of serum 6 to linear peptides of protein N of SARS-CoV Urbani / Binding of serum 37 to linear peptides of protein N of SARS-CoV Urbani / Binding of serum 6 to linear peptide (PEPSCAN-ELISA) / Binding of serum 1a to looped/cyclic peptides of protein N of SARS-CoV Urbani / Binding of serum 1b to looped/cyclic peptides of protein N of SARS-CoV Urbani / Binding of serum 2 to looped/cyclic peptides of protein N of SARS-CoV Urbani / Binding of serum 6 to looped/cyclic peptides of protein N of SARS-CoV Urbani / Binding of serum 37 to looped/cyclic peptides of protein N of SARS-CoV Urbani / Binding of serum 62 to looped/cyclic peptides of protein N of SARS-CoV Urbani / Binding of serum London to looped/cyclic peptides of protein N of SARS-CoV Urbani / Binding of serum SARS-green to looped/cyclic peptides of protein N of SARS-CoV Urbani: unit not given here
# [4] = tested on: control sera (pooled serum of ten healthy LUMC hospital workers; commercial negative donor pooled serum from the Dutch bloodbank); format: binding, human; set-up: Binding of Control serum LUMC to linear peptides / Binding of Control serum Blood-bank to linear peptides / Binding of Control serum LUMC to looped peptides / Binding of Control Serum Blood-Bank to Looped peptides / Binding of Control serum LUMC to linear peptides of the protein M of SARS-CoV Urbani / Binding of Control serum Blood-bank to linear peptides of the protein M of SARS-CoV Urbani / Binding of Control serum LUMC to looped peptides of the protein M of SARS-CoV Urbani / Binding of Control Serum Blood-Bank to Looped peptides of the protein M of SARS-CoV Urbani: unit not given here
sequence,measurement,setting,value
ATVLQLPQGTTLPKG,Binding of antibody 03-018 to linear peptides of the N protein of SARS-CoV Urbani,[1],0.1
same,Binding of antibody 03-018 to looped/cyclic peptides of the N protein of SARS-CoV Urbani,[1],0.2
same,Binding of a rabbit serum to linear peptides of protein N of SARS-CoV Urbani (Rabbit serum linear peptides),[2],0.2
same,Binding of a rabbit serum to looped/cyclic peptides of protein N of SARS-CoV Urbani (Rabbit serum looped peptides),[2],0.3
DDKDPQFKDNVILLN,Binding of antibody 03-018 to linear peptides of the N protein of SARS-CoV Urbani,[1],0.1
same,Binding of antibody 03-018 to looped/cyclic peptides of the N protein of SARS-CoV Urbani,[1],0.3
same,Binding of a rabbit serum to linear peptides of protein N of SARS-CoV Urbani (Rabbit serum linear peptides),[2],0.1
same,Binding of a rabbit serum to looped/cyclic peptides of protein N of SARS-CoV Urbani (Rabbit serum looped peptides),[2],0.4
DKDPQFKDNVILLNK,Binding of antibody 03-018 to linear peptides of the N protein of SARS-CoV Urbani,[1],0.1
same,Binding of antibody 03-018 to looped/cyclic peptides of the N protein of SARS-CoV Urbani,[1],0.4
same,Binding of a rabbit serum to linear peptides of protein N of SARS-CoV Urbani (Rabbit serum linear peptides),[2],0.1
same,Binding of a rabbit serum to looped/cyclic peptides of protein N of SARS-CoV Urbani (Rabbit serum looped peptides),[2],0.5
GSSRGNSPARMASGG,Binding of antibody 03-018 to linear peptides of the N protein of SARS-CoV Urbani,[1],0.1
same,Binding of antibody 03-018 to looped/cyclic peptides of the N protein of SARS-CoV Urbani,[1],0.2
same,Recognition of the peptide by the rabbit serum,[2],recognized
same,Binding of serum 1a to linear peptide (PEPSCAN-ELISA),[3],0.4
same,Binding of serum 1a to looped/cyclic peptides of protein N of SARS-CoV Urbani,[3],0.4
same,Binding of serum 1b to linear peptide (PEPSCAN-ELISA),[3],0.2
same,Binding of serum 1b to looped/cyclic peptides of protein N of SARS-CoV Urbani,[3],0.3
same,Binding of serum 2 to linear peptide (PEPSCAN-ELISA),[3],0.2
same,Binding of serum 2 to looped/cyclic peptides of protein N of SARS-CoV Urbani,[3],0.7
same,Binding of serum 6 to linear peptide (PEPSCAN-ELISA),[3],0.2
same,Binding of serum 6 to looped/cyclic peptides of protein N of SARS-CoV Urbani,[3],0.4
same,Binding of serum 37 to linear peptide (PEPSCAN-ELISA),[3],0.5
same,Binding of serum 37 to looped/cyclic peptides of protein N of SARS-CoV Urbani,[3],0.6
same,Binding of serum 62 to linear peptide (PEPSCAN-ELISA),[3],0.7
same,Binding of serum 62 to looped/cyclic peptides of protein N of SARS-CoV Urbani,[3],0.6
same,Binding of serum London to linear peptide (PEPSCAN-ELISA),[3],0.5
same,Binding of serum London to looped/cyclic peptides of protein N of SARS-CoV Urbani,[3],0.9
same,Binding of serum SARS-green to linear peptide (PEPSCAN-ELISA),[3],0.8
same,Binding of serum SARS-green to looped/cyclic peptides of protein N of SARS-CoV Urbani,[3],0.7
same,Binding of serum SARS-yellow to linear peptide (PEPSCAN-ELISA),[3],0.7
same,Binding of serum SARS-yellow to looped/cyclic peptides of protein N of SARS-CoV Urbani,[3],0.5
TVLQLPQGTTLPKGF,Binding of antibody 03-018 to linear peptides of the N protein of SARS-CoV Urbani,[1],0.1
same,Binding of antibody 03-018 to looped/cyclic peptides of the N protein of SARS-CoV Urbani,[1],0.3
same,Binding of a rabbit serum to linear peptides of protein N of SARS-CoV Urbani (Rabbit serum linear peptides),[2],0.3
same,Binding of a rabbit serum to looped/cyclic peptides of protein N of SARS-CoV Urbani (Rabbit serum looped peptides),[2],1.2
YTQSTALQELLIQQW,Binding of a rabbit serum to linear peptides,[2],0.3
same,Binding of a rabbit serum to looped peptides,[2],0.3
same,Binding of serum 1a to linear peptides of protein X2,[3],0.6
same,Binding of serum 1a to looped/cyclic peptides of protein X2 of SARS-CoV Urbani,[3],0.6
same,Binding of serum 1b to linear peptides of protein X2,[3],0.5
same,Binding of serum 1b to looped/cyclic peptides of protein X2 of SARS-CoV Urbani,[3],0.5
same,Binding of serum 2 to linear peptides of protein X2,[3],0.4
same,Binding of serum 2 to looped/cyclic peptides of protein X2 of SARS-CoV Urbani,[3],0.5
same,Binding of serum 6 to linear peptides of protein X2,[3],0.4
same,Binding of serum 6 to looped/cyclic peptides of protein X2 of SARS-CoV Urbani,[3],0.2
same,Binding of serum 37 to linear peptides of protein X2,[3],0.5
same,Binding of serum 37 to looped/cyclic peptides of protein X2 of SARS-CoV Urbani,[3],0.4
same,Binding of serum 62 to linear peptides of protein X2,[3],0.6
same,Binding of serum 62 to looped/cyclic peptides of protein X2 of SARS-CoV Urbani,[3],0.6
same,Binding of serum London to linear peptides of protein X2,[3],0.5
same,Binding of serum London to looped/cyclic peptides of protein X2 of SARS-CoV Urbani,[3],0.2
same,Binding of serum SARS-green to linear peptides of protein X2,[3],0.6
same,Binding of serum SARS-green to looped/cyclic peptides of protein X2 of SARS-CoV Urbani,[3],0.3
same,Binding of serum SARS-yellow to linear peptides of protein X2,[3],0.6
same,Binding of serum SARS-yellow to looped/cyclic peptides of protein X2 of SARS-CoV Urbani,[3],0.3
same,Binding of Control Serum Blood-Bank to Looped peptides,[4],0.6
same,Binding of Control serum Blood-bank to linear peptides,[4],0.5
same,Binding of Control serum LUMC to linear peptides,[4],0.4
same,Binding of Control serum LUMC to looped peptides,[4],0.6
YVVVHGYFTEVYYQL,Binding of a rabbit serum to linear peptides,[2],0.1
same,Binding of a rabbit serum to looped peptides,[2],0.5
same,Binding of serum 1a to linear peptides of protein X1 of SARS-CoV Urbani,[3],0.7
same,Binding of serum 1a to looped/cyclic peptides of protein X1 of SARS-CoV Urbani,[3],0.6
same,Binding of serum 1b to linear peptides of protein X1 of SARS-CoV Urbani,[3],0.6
same,Binding of serum 1b to looped/cyclic peptides of protein X1 of SARS-CoV Urbani,[3],0.5
same,Binding of serum 2 to linear peptides of protein X1 of SARS-CoV Urbani,[3],0.5
same,Binding of serum 2 to looped/cyclic peptides of protein X1 of SARS-CoV Urbani,[3],0.5
same,Binding of serum 6 to linear peptides of protein X1 of SARS-CoV Urbani,[3],0.3
same,Binding of serum 6 to looped/cyclic peptides of protein X1 of SARS-CoV Urbani,[3],0.3
same,Binding of serum 37 to linear peptides of protein X1 of SARS-CoV Urbani,[3],0.5
same,Binding of serum 37 to looped/cyclic peptides of protein X1 of SARS-CoV Urbani,[3],0.4
same,Binding of serum 62 to linear peptides of protein X1 of SARS-CoV Urbani,[3],0.4
same,Binding of serum 62 to looped/cyclic peptides of protein X1 of SARS-CoV Urbani,[3],0.4
same,Binding of serum London to linear peptides of protein X1 of SARS-CoV Urbani,[3],0.2
same,Binding of serum London to looped/cyclic peptides of protein X1 of SARS-CoV Urbani,[3],0.2
same,Binding of serum SARS-green to linear peptides of protein X1 of SARS-CoV Urbani,[3],0.1
same,Binding of serum SARS-green to looped/cyclic peptides of protein X1 of SARS-CoV Urbani,[3],0.2
same,Binding of serum SARS-yellow to linear peptides of protein X1 of SARS-CoV Urbani,[3],0.2
same,Binding of serum SARS-yellow to looped/cyclic peptides of protein X1 of SARS-CoV Urbani,[3],0.4
same,Binding of Control Serum Blood-Bank to Looped peptides,[4],0.5
same,Binding of Control serum Blood-bank to linear peptides,[4],0.4
same,Binding of Control serum LUMC to linear peptides,[4],1.0
same,Binding of Control serum LUMC to looped peptides,[4],0.9
